The target of one experiment is Syk (Homo sapiens (Human), UniProt P43405). The experiment is described as follows: Syk enzyme inhibition (FRET, Z-LYTE). The format is biochemical. In short, it runs like this:
(§1)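 Fluorescence-ratio kinase assay: 2 hr compound–enzyme preincubation at RT, 1 hr reaction with ATP added as 800 μM (c-Src) or 60 μM (Syk) solution. IC50 derived from percent inhibition curves.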

The test system of experiment [1] is PBMCs. The experiment is described as follows: Cell mitosis assay in PBMCs (assay g). It counts as cell-based. As to conditions: Homo sapiens, PBMC, test compound 5 μg/mL. In short, it runs like this: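 Human PBMCs from healthy donors, stimulated with 2% PHA for 48 hr, then exposed to test compounds for 20 hr, with demecolcine (0.1 μg/mL) added 2 hr before harvest. Cells fixed/permeabilised, stained for phospho-histone 3 and propidium iodide, and read by flow cytometry gated on lymphocytes. % mitosis inhibition vs 0.5% DMSO vehicle.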

A further experiment has as its target c-Src (Homo sapiens (Human), UniProt P12931). The experiment is described as follows: c-Src enzyme inhibition (FRET, Z-LYTE). It counts as biochemical. In a few lines:
as §1

In experiment [2] the test system is PBMCs. The experiment is described as follows: IFN gamma release in CD3/CD28 stimulated PBMC cells (assay c). The format is cell-based. Conditions: Homo sapiens, read-out: IC50 Values for Inhibition of Cytokine Release, PBMCs IFNγ. In short, it runs like this:
(§2)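 Compound added to human PBMCs on anti-CD3/anti-CD28-coated wells (0.3 and 3 μg/mL respectively); 3-day culture. Sandwich ELISA of supernatant IL-2 or IFN gamma gives the read-out, with IC50 derived from the dose-response curve.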

The test system of experiment [3] is PBMCs. The experiment is described as follows: LPS-induced IL-8 release in PBMC cells (assay b). The format is cell-based, human. Conditions: Homo sapiens, PBMC; LPS-stimulated PBMCs; read-out: IC50 Values for Inhibition of Cytokine Release, PBMCs IL-8. In short, it runs like this: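 Human PBMCs from healthy donors, isolated by density gradient, were pretreated with compound for 2 h and then stimulated with 1 ng/mL LPS (E. coli 0111:B4) for 24 h at 37° C, 5% CO2. Supernatant IL-8 and TNFα were measured by sandwich ELISA, and IC50 was taken from the dose-response curve.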

A further experiment addresses GSK 3α (Homo sapiens (Human), UniProt P49840). The experiment can be described thus: GSK 3α enzyme inhibition (FRET, Z-LYTE, Method 2). It counts as biochemical. As to conditions: read-out: IC50 Values for Enzyme Inhibition, GSK3α. In a few lines: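 Recombinant human GSK3α was preincubated with compound (stocks 4, 0.4, 0.04 or 0.004 μg/mL) at RT, 2 hr for Method 1 and 105 min for Method 2. FRET peptide (8 μM stock) and ATP (40 μM stock) were added for 1 hr, then protease development for 1 hr. IC50 was taken from concentration–response curves.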

In experiment [4] the test system is PBMCs. The experiment can be described thus: IL-2 release in CD3/CD28 stimulated PBMC cells (assay c). As to conditions: Homo sapiens, read-out: IC50 Values for Inhibition of Cytokine Release, PBMCs IL-2. It counts as cell-based. In short, it runs like this: as §2
In experiment [5] the target is p38 MAPKα isoform (MAPK14) (Homo sapiens (Human), UniProt Q16539). The experiment is described as follows: p38 MAPKα enzyme inhibition (FRET, Z-LYTE, Method 2). The format is biochemical. In short, it runs like this: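 Z-LYTE FRET: p38 MAPKα (80 ng/mL for Method 1, 200 ng/mL for Method 2, pre-dilution) preincubated 2 hr RT with compound (4–0.004 μg/mL solutions), activity read via MAPKAP-K2 phosphorylation after 1 hr RT and 1 hr protease development. Coumarin/fluorescein ratio gives phosphorylation; % inhibition versus uninhibited control, IC50 from concentration-response curve.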
Sequence of p38 MAPKα isoform (MAPK14) (Q16539 whole entry, canonical isoform): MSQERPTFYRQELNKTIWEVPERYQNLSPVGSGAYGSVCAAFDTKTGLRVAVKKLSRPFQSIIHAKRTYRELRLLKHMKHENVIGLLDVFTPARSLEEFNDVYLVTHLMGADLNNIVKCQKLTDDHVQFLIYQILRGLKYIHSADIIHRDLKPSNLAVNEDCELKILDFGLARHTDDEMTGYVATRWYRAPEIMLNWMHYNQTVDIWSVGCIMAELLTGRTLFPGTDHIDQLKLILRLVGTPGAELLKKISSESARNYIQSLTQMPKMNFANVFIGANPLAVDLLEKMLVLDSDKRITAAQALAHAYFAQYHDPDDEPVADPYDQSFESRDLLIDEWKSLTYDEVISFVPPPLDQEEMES

What is called IC50 is the concentration that gives 50% inhibition. As usually defined, the inhibition is the relative decrease from the control value, in per cent.

Sequence of GSK 3α (P49840 whole entry): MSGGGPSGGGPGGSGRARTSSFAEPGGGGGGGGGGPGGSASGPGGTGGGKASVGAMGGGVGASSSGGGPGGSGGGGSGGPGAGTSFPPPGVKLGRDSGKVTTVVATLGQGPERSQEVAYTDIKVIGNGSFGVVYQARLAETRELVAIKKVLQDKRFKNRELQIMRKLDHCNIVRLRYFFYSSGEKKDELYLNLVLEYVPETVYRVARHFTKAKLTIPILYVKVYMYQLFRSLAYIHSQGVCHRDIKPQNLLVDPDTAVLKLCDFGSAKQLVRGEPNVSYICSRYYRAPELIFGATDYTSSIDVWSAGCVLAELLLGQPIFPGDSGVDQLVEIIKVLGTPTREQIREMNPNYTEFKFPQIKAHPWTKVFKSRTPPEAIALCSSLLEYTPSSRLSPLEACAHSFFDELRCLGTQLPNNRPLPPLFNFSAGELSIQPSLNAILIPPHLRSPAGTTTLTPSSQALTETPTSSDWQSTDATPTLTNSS
Sequence of c-Src (P12931 whole entry, looked up): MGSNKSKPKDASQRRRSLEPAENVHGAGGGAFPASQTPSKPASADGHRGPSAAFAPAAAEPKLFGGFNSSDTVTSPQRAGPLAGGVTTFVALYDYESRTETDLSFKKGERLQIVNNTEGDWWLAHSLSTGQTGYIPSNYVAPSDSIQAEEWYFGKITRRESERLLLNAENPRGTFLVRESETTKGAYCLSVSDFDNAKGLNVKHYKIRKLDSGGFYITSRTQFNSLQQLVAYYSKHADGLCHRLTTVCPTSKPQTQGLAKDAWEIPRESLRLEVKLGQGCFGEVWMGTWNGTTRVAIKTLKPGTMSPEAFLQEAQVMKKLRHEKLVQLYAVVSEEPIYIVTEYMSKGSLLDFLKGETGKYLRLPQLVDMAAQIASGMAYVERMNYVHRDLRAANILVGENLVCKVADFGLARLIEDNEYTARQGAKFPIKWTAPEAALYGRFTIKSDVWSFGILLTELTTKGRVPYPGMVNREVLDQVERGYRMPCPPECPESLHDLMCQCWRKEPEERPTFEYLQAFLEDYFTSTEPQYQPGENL

For `COc1cc(Nc2cc(Oc3ccc(NC(=O)Nc4cc(C(C)(C)C)cc(P(C)(C)=O)c4OC)c4ccccc34)ccn2)cc(S(=O)(=O)N(C)CCN2CCOCC2)c1` [Example 75, 3-((4-((4-(3-(5-(tert-Butyl)-3-(dimethylphosphoryl)-2-methoxyphenyl)ureido)naphthalen-1-yl)oxy)pyridin-2-yl)amino)-5-methoxy-N-methyl-N-(2-morpholinoethyl)benzenesulfonamide], the IC50 at Syk is more than 1100 nM; at c-Src, 78 nM; with PBMCs [2], 3 nM; in the experiment on PBMCs [3], 1.6 nM; at GSK 3α, 2320 nM; in the experiment on PBMCs [4], 115 nM. Also, half-maximal inhibition in experiment [5] (IC50) required 134 nM. Besides, the inhibition at 5 µg/mL in the experiment on PBMCs [1] was 13.9%.

For the molecule `COCCOCCOCCNC(=O)c1cc(Nc2cc(Oc3ccc(NC(=O)Nc4cc(C(C)(C)C)cc([S+](C)[O-])c4OC)c4ccccc34)ccn2)cc(OC)c1` (centres unmarked) [Example 48, 3-((4-((4-(3-(5-(tert-Butyl)-2-methoxy-3-(methylsulfinyl)phenyl)ureido)naphthalen-1-yl)oxy)pyridin-2-yl)amino)-5-methoxy-N-(2-(2-(2-methoxyethoxy)ethoxy)ethyl)benzamide], the IC50 against Syk is more than 1230 nM; on c-Src it was 37 nM; with PBMCs [2], 3.7 nM; in the experiment on PBMCs [3] it was 0.4 nM; at GSK 3α, 2670 nM; in the experiment on PBMCs [4], 116 nM. Moreover, half-maximal inhibition in experiment [5] (IC50) was put at 25 nM. Also, in the experiment on PBMCs [1], the inhibition at 5 µg/mL came to 35.6%.

Consider `COc1cc(Nc2cc(Oc3ccc(NC(=O)Nc4cc(C(C)(C)C)cc(CC(N)=O)c4OC)c4ccccc34)ccn2)cc(C(=O)NCCCN2CC[S+]([O-])CC2)c1` [Example 68, 3-((4-((4-(3-(3-(2-Amino-2-oxoethyl)-5-(tert-butyl)-2-methoxyphenyl)ureido)naphthalen-1-yl)oxy)pyridin-2-yl)amino)-5-methoxy-N-(3-(1-oxidothiomorpholino)propyl)benzamide], for which the half-maximal inhibitory concentration (IC50) on Syk amounted to 143 nM; against c-Src it was 18 nM; with PBMCs [2], 8 nM; in the experiment with PBMCs [3], 3.8 nM; on GSK 3α, 1320 nM; in the experiment on PBMCs [4], 40.6 nM. The molecule also returned an IC50 in experiment [5] of 13 nM. Also, the inhibition at 5 µg/mL with PBMCs [1] is -0.6%.

Consider `COc1cc(Nc2cc(Oc3ccc(NC(=O)Nc4cc(C(C)(C)C)cc(CC(N)=O)c4OC)c4ccccc34)ccn2)cc(S(=O)(=O)N(C)C)c1` [38(aj), 2-(5-(tert-Butyl)-3-(3-(4-((2-((3-(N,N-dimethylsulfamoyl)-5-methoxyphenyl)amino)pyridin-4-yl)oxy)naphthalen-1-yl)ureido)-2-methoxyphenyl)acetamide], for which the IC50 against Syk was more than 1380 nM; against c-Src, 220 nM; in the experiment on PBMCs [2] it was 9.6 nM; with PBMCs [3] it was 2.1 nM; at GSK 3α it was more than 13200 nM; in the experiment with PBMCs [4], 340 nM. Moreover, the IC50 in experiment [5] was found to be 295 nM. Moreover, the inhibition at 5 µg/mL in the experiment with PBMCs [1] is -1%.

As to `COc1cc(Nc2cc(Oc3ccc(NC(=O)Nc4cc(C(C)(C)C)cc(OC(CO)CO)c4OC)c4ccccc34)ccn2)cc(C(N)=O)c1` [Example 66, 3-((4-((4-(3-(5-(tert-Butyl)-3-((1,3-dihydroxypropan-2-yl)oxy)-2-methoxyphenyl)ureido)naphthalen-1-yl)oxy)pyridin-2-yl)amino)-5-methoxybenzamide], the IC50 worked out at 918 nM at Syk; 54 nM against c-Src; 7.7 nM in the experiment with PBMCs [2]; 2.2 nM in the experiment with PBMCs [3]; 4280 nM on GSK 3α; 60.9 nM with PBMCs [4]. Further, the IC50 in experiment [5] stood at 222 nM. Besides, the inhibition at 5 µg/mL with PBMCs [1] was 46.4%.

As to `COc1cc(Nc2cc(Oc3ccc(NC(=O)Nc4cc(C(C)(C)C)cc(C(=O)NCCN5CCOCC5)c4OC)c4ccccc34)ccn2)cc(OC)c1` [Example 62, 5-(tert-Butyl)-3-(3-(4-((2-((3,5-dimethoxyphenyl)amino)pyridin-4-yl)oxy)naphthalen-1-yl)ureido)-2-methoxy-N-(2-morpholinoethyl)benzamide], the IC50 on Syk is 145 nM; against c-Src it was 105 nM; in the experiment with PBMCs [2], 4.8 nM; with PBMCs [3], 2.4 nM; at GSK 3α, more than 11400 nM; with PBMCs [4], 24.9 nM. The molecule further came in with an IC50 in experiment [5] of 482 nM. The inhibition at 5 µg/mL in the experiment on PBMCs [1] worked out at 54.1%.

In the case of `COc1cc(Nc2cc(Oc3ccc(NC(=O)Nc4cc(C(C)(C)C)cc(S(C)(=O)=O)c4OC)c4ccccc34)ccn2)cc(C(=O)NCCN2CCOCC2)c1` [Example 54, 3-((4-((4-(3-(5-(tert-Butyl)-2-methoxy-3-(methylsulfonyl)phenyl)ureido)naphthalen-1-yl)oxy)pyridin-2-yl)amino)-5-methoxy-N-(2-morpholinoethyl)benzamide], the half-maximal inhibitory concentration (IC50) on Syk is 590 nM; against c-Src it was 43 nM; in the experiment with PBMCs [2], 3.7 nM; in the experiment with PBMCs [3], 1.5 nM; on GSK 3α, more than 5020 nM; in the experiment on PBMCs [4], 37.9 nM. In experiment [5], this molecule registered an IC50 of 63 nM. For the same molecule, in the experiment with PBMCs [1], the inhibition at 5 µg/mL is 51.9%.

Take `COc1cc(Nc2cc(Oc3ccc(NC(=O)Nc4cc(C(C)(C)C)cc(P(C)(C)=O)c4OC)c4ccccc34)ccn2)cc(S(=O)(=O)N(C)CCCN2CCOCC2)c1` [79(d), 1-(5-tert-Butyl-3-dimethylphosphoryl-2-methoxy-phenyl)-3-[4-[[2-[3-methoxy-5-[methyl(3-morpholinopropyl)sulfamoyl]anilino]-4-pyridyl]oxy]-1-naphthyl]urea]: the IC50 against Syk was more than 1160 nM; on c-Src, 218 nM; in the experiment with PBMCs [2], 14.6 nM; with PBMCs [3] it was 3.9 nM; at GSK 3α it was 3940 nM; in the experiment on PBMCs [4], 624 nM. This molecule came in with an IC50 in experiment [5] of 39 nM. Moreover, in the experiment with PBMCs [1], the inhibition at 5 µg/mL stood at 19.9%.

On to `COc1cc(Nc2cc(Oc3ccc(NC(=O)Nc4cc(C(C)(C)C)cc([S+](C)[O-])c4OC)c4ccccc34)ccn2)cc(C(=O)NCCN2CC[S+]([O-])CC2)c1` (centres unmarked) [Example 69, 3-((4-((4-(3-(5-(tert-Butyl)-2-methoxy-3-(methylsulfinyl)phenyl)ureido)naphthalen-1-yl)oxy)pyridin-2-yl)amino)-5-methoxy-N-(2-(1-oxidothiomorpholino)ethyl)benzamide], for which the half-inhibitory concentration (IC50) at Syk came out at 124 nM; against c-Src it was 12 nM; in the experiment on PBMCs [2] it was 7.6 nM; in the experiment on PBMCs [3], 2.3 nM; at GSK 3α, 1960 nM; with PBMCs [4], 75.7 nM. This molecule yielded a half-maximal inhibitory concentration (IC50) in experiment [5] of 16 nM. Also, the inhibition at 5 µg/mL in the experiment on PBMCs [1] was found to be 8.9%.

`COc1cc(Nc2cc(Oc3ccc(NC(=O)Nc4cc(C(C)(C)C)cc(CNC(C)=O)c4OC)c4ccccc34)ccn2)cc(C(=O)NCCN2CC[S+]([O-])CC2)c1` [Example 71, 3-((4-((4-(3-(3-(Acetamidomethyl)-5-(tert-butyl)-2-methoxyphenyl)ureido)naphthalen-1-yl)oxy)pyridin-2-yl)amino)-5-methoxy-N-(2-(1-oxidothiomorpholino)ethyl)benzamide]: the 50% inhibitory concentration (IC50) is 26 nM at Syk; 14 nM against c-Src; 7.2 nM in the experiment with PBMCs [2]; 3.4 nM in the experiment with PBMCs [3]; 1200 nM on GSK 3α; 33.7 nM in the experiment with PBMCs [4]. In addition, the 50% inhibitory concentration (IC50) in experiment [5] came to 25 nM. Moreover, the inhibition at 5 µg/mL in the experiment on PBMCs [1] stood at 48.3%.

Source of the values: patent US9890185B2, “Urea derivatives useful as kinase inhibitors” (Respivert Limited, priority 2013, dated 2018).
